Experimental data as given in patent US9403827B2, “Substituted purinone compounds” (NOVARTIS AG, priority 2013, dated 2016).

How the values were obtained:
Type in all cases: binding
[1] = molecular target: T1, human MDM2 protein (amino acids 2-188) (Homo sapiens (Human), UniProt Q00987); assay: TR-FRET p53-MDM2 Assay 1; conditions: 1.25 nM MDM2-biotinylated, 10 nM Cy5-p53 peptide
Method: (§1) Time Resolved Fluorescence Energy Transfer (TR-FRET) Assay
(§2) The inhibition of p53-MDM2 and p53-MDM4 interactions is measured by time resolved fluorescence energy transfer (TR-FRET). Fluorescence energy transfer (or Foerster resonance energy transfer) describes an energy transfer between donor and acceptor fluorescent molecules. For this assay, human MDM2 protein (amino acids 2-188) and human MDM4 protein (amino acids 2-185), tagged with a C-terminal biotin moiety, are used in combination with a Europium labeled streptavidin (Perkin Elmer, Inc., Waltham, Mass., USA) serving as the donor fluorophore. The p53 derived, Cy5 labeled peptide Cy5-TFSDLWKLL (p53 aa18-26) is the energy acceptor. Upon excitation of the donor molecule at 340 nm, binding interaction between MDM2 or MDM4 and the p53 peptide induces energy transfer and enhanced response at the acceptor emission wavelength at 665 nm.
(§3) Disruption of the formation of the p53-MDM2 or p53-MDM4 complex due to an inhibitor molecule binding to the p53 binding site of MDM2 or MDM4 results in increased donor emission at 620 nm. The ratiometric FRET assay readout is calculated from the raw data of the two distinct fluorescence signals measured in time resolved mode (fluorescence 665 nm/fluorescence 620 nm×1000).
(§4) The test is performed in white 384-well plates (Greiner Bio-One, reference 781207) in a total volume of 60 μL by adding 1 μL of compounds tested at different concentrations diluted in 100% DMSO (1.7% final DMSO concentration) in reaction buffer (PBS, 125 mM NaCl, 0.001% Novexin (consists of carbohydrate polymers), designed to increase the solubility and stability of proteins; Expedeon Ltd., Cambridgeshire, United Kingdom), 0.01% Gelatin, 0.01% 0.2%, Pluronic F-127 (block copolymer from ethylenoxide and propyleneoxide), 1 mM DTT). After addition of 1.25 nM MDM2-biotinylated or 2.5 nM MDM4-biotinylated (internal preparations, both MDM2 and MDM4 are biotinylated at the C-terminal of the peptide construct), and 0.625 nM Europium labeled streptavidin (Perkin Elmer), the solution is pre-incubated for 15 minutes at room temperature, then 10 nM Cy5-p53 peptide (internal preparation, the Cy5 dye is directly bound to the N-terminal part of p53 peptide construct) is added before an incubation at room temperature for 15 minutes prior to reading the plate. For measurement of samples, a Victor II microplate reader (Perkin Elmer) is used with the following settings: Excitation 340 nm, Emission Donor 620 nm and Emission Acceptor 665 nm. IC50 values are calculated by curve fitting using XLfit. If not specified, reagents are purchased from Sigma-Aldrich Chemie GmBH, Buchs, Switzerland.
(§5) This assay was used to evaluate compounds displaying inhibition of p53-MDM2 interaction and p53-MDM4 interaction at IC50s of 0.005 to 50 μM (p53-MDM2 Assay 1 and p53-MDM4 Assay 1, respectively). For selected compounds displaying IC50s between […] on MDM2, a slightly modified assay is used with the following adaptations: 0.1 nM MDM2, 0.1 nM Europium labeled streptavidin and Tecan genios Pro is used as a microplate reader for the fluorescence measurements (p53-MDM2 Assay 2).

[2] = molecular target: T1, human MDM2 protein (amino acids 2-188); assay: TR-FRET p53-MDM2 Assay 2 (modified: 0.1 nM MDM2); conditions: 0.1 nM MDM2, 0.1 nM Europium labeled streptavidin, Tecan genios Pro reader
Method: as §1, §2, §3, §4, §5

[3] = molecular target: human MDM4 protein (amino acids 2-185) (Homo sapiens (Human), UniProt O15151); assay: TR-FRET p53-MDM4 Assay 1; conditions: 2.5 nM MDM4-biotinylated, 10 nM Cy5-p53 peptide
Chain of human MDM4 protein (amino acids 2-185) (O15151 2-185): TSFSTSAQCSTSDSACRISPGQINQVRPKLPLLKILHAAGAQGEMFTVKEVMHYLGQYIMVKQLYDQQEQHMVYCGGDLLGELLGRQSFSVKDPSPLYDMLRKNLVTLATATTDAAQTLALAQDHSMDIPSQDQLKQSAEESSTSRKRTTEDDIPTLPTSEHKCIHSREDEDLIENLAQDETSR
Method: as §1, §2, §3, §4, §5

T1 sequence (Q00987 2-188): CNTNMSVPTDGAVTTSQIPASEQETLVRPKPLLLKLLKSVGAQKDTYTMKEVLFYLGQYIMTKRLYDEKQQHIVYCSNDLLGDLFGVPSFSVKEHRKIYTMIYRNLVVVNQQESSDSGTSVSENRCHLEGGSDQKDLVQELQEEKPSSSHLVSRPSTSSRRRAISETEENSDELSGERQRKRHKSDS

Row | IC50 [1] [µM] | IC50 [2] [nM] | IC50 [3] [µM] | Structure (SMILES)
1 | 0.002 | 0.882 | 1.51 | COc1ccccc1-c1nc2c(n1C(C)C)C(c1ccc(Cl)cc1)N(c1cccc(Cl)c1F)C(=O)N2 (stereo not shown) [Example 1, 1-(3-Chloro-2-fluoro-phenyl)-6-(4-chloro-phenyl)-7-isopropyl-8-(2-methoxy-phenyl)-1,3,6,7-tetrahydro-purin-2-one]
2 | 0.0021 | 0.779 | 2.13 | COc1ccccc1-c1nc2c(n1C(C)C)C(c1ccc(Cl)cc1C)N(c1cccc(Cl)c1F)C(=O)N2 (stereo not shown) [Example 2, 1-(3-Chloro-2-fluoro-phenyl)-6-(4-chloro-2-methyl-phenyl)-7-isopropyl-8-(2-methoxy-phenyl)-1,3,6,7-tetrahydro-purin-2-one]
3 | 0.0031 | – | 16.7 | COc1ccncc1-c1nc2c(n1C(C)C)C(c1ccc(Cl)cc1C)N(c1cc(Cl)ccc1C)C(=O)N2 (stereo not shown) [Example 4, 6-(4-Chloro-2-methylphenyl)-1-(5-chloro-2-methylphenyl)-7-isopropyl-8-(4-methoxypyridin-3-yl)-6,7-dihydro-1H-purin-2(3H)-one]
4 | 0.0085 | – | 14 | COc1ccncc1-c1nc2c(n1C(C)C)C(c1ccc(Cl)cc1)N(c1cccc(Cl)c1F)C(=O)N2 (stereo not shown) [Example 6, 1-(3-Chloro-2-fluorophenyl)-6-(4-chlorophenyl)-7-isopropyl-8-(4-methoxypyridin-3-yl)-6,7-dihydro-1H-purin-2(3H)-one]
